In assay [1] the test system is pancreatic cancer cell lines (SLFN11-deficient or SLFN11-proficient). Kind of assay: Pancreatic cell line panel, 6x6 concentration matrix, live-dead SyTox green assay, Loewe synergy. The class given is cell-based. From the text: SLFN11 RNA seq data (log 2 RPKM values) were downloaded from cancer cell line encyclopedia (CCLE) (Barretina J. et al., Nature, 2012; 483: 603-607) and drug response data (log(IC50) and area under the dose-response curve (AUCs)) from drug sensitivity in cancer database (Yang W et al., Nucleic Acids Res, 2013; 41: […]-61). Cell lines with CCLE RNA seq log 2 RPKM values below 1 were defined as SLFN11-deficient and cell lines with log 2 RPKM values above 1 as SLFN11-proficient. Nineteen pancreatic cell lines in 384-well plates were dosed with increasing concentrations of adavosertib and gemcitabine in a 6×6 concentration matrix using an Echo 555 (LabCyte). The dose range was 0-3 μM for adavosertib, and 0-0.3 μM for gemcitabine; in both cases dilutions 1:3 from the top dose were performed. Five days following continuous treatment, cell viability was determined by live-dead SyTox green assay (Life Technologies, Carlsbad, Calif., USA). Synergy was analyzed in Genedata screener software using the Loewe dose-additivity model as described above.

Assay [2] deals with DU145 isogenic cells (WT and SLFN11 KO). The class given is cell-based. The note with it: SLFN11 KO cells compared to wild type DU145 cells; 72 hours; FIG. 2D. The protocol: For cell survival experiment in 96 well plate, cells were seeded in 96-well plates, following compound dosing using a HP dispenser. 72 hours later, cell viability was determined with end-point CellTiter-Glo luminescent assays (Promega). Percentage growth was calculated using the equation (T−T0)/(C−T0)×100, where T=compound-treated cells; T0=cells at 0 h time point and C=control cells. Dose response curves were plotted in GraphPad prism.

Turning to `Nc1ccn([C@@H]2O[C@H](CO)[C@@H](O)C2(F)F)c(=O)n1` [gemcitabine], the “sensitivity (log IC50) of SLFN11-deficient versus SLFN11-proficient cell lines, fold less sensitive” value in assay [1] (gemcitabine monotherapy, on average, FIG. 3A) is 100 times. Moreover, the “sensitivity to DDA monotherapy (survival curves)” value (shortened to “sensitivity to DDA monotherapy”) in assay [2] was “resistant”.

Consider `N.N.[Cl][Pt][Cl]` [cisplatin], for which, in assay [2], the “sensitivity to DDA monotherapy” value was “resistant”.

Consider `C=CCn1c(=O)c2cnc(Nc3ccc(N4CCN(C)CC4)cc3)nc2n1-c1cccc(C(C)(C)O)n1` [adavosertib], for which the “response (log IC50) of SLFN11-deficient versus SLFN11-proficient cell lines” value in assay [1] (adavosertib monotherapy, FIG. 3B) is given as “same response”.

As to `NC(=O)NO` [hydroxyurea], the “sensitivity to DDA monotherapy” value in assay [2] was “resistant”.

Consider `CC[C@@]1(O)C(=O)OCc2c1cc1n(c2=O)Cc2cc3ccccc3nc2-1` [camptothecin], for which the “sensitivity to DDA monotherapy” value in assay [2] is “resistant”.

With `COc1cc([C@@H]2c3cc4c(cc3[C@@H](O[C@@H]3O[C@@H]5CO[C@@H](C)O[C@H]5[C@H](O)[C@H]3O)[C@H]3COC(=O)[C@H]23)OCO4)cc(OC)c1O` [etoposide], the “sensitivity to DDA monotherapy” value in assay [2] was “resistant”.

The record behind these values is US20220387468A1, “METHODS OF TREATING CANCER” (ASTRAZENECA AB, priority 2019, published 2022).
